Usually EC50 stands for the concentration giving half of the maximal effect.

Two compounds from patent US20070224167A1, “Novel HCV inhibitor combinations and methods” (priority 2006, published 2007) can be followed below.

One experiment has as its system HCV 1a H77 replicon. The experiment is described as follows: Intracellular antiviral activity in HCV replicon, genotype 1a. Format: cell-based, HCV genotype 1a. To be noted: Hepatitis C virus, 72 h, read-out: HCV RNA EC50. As to the method:
HCV genotype 1b, BB7 replicon-containing cell line is derived from a human hepatoma cell line (Huh7). A genotype 1a (H77 isolate; GenBank Accession #AF009606) is derived from replicon-containing cell line (Huh7-1a). The cell lines are cultured at 37° C. and 5% CO2 in Dulbecco's Modified Eagle Media (D-MEM; Invitrogen #11965-084) containing 10% fetal bovine serum (FBS; HyClone #SH300070) supplemented with 1% penicillin/streptomycin (Invitrogen #15140-122), 1% non-essential amino acids (Invitrogen #11140-050), 0.66 mM HEPES buffer, pH 7.55 (Invitrogen #15630-080), and 1 mg/mL G418 (Geneticin®, Invitrogen #11811-031 or #10131-027). […]
At the end of the incubation period, the replicon-containing cells are lysed in 150 μL of lysis buffer provided in the RNeasy 96 Kit (Qiagen #74181). […] For duplexed RT-PCR quantifying both HCV RNA and 18S rRNA, 0.08 μM rRNA forward primer, 0.1 μM rRNA reverse primer, and 0.2 μM rRNA probe are added (ABI #4308329). […]
The amounts of the HCV and 18S ribosomal RNAs in each sample are estimated by comparing the Ct cycles with those in the corresponding standard curves. […] The total RNA that is used for preparing the standard curve of the rRNA is quantified by O.D.260 measurement. Compound dose response is measured in a 10-point, 3-fold serial dilution series performed in triplicates and subjected to the same corresponding RT-PCR conditions as described above. […]
For orientation: Replicon systems follow genome replication, usually without infectious particles.

The test system of a further experiment is Huh7-BB7 cells. In words: Selection of replicon variants with reduced susceptibility, Study B. Format: cell-based, HCV genotype 1b. To be noted: prolonged treatment. As to the method: Huh7-BB7 cells are plated at a density of 2-3×10^5 cells per T25 flask and cultured in DMEM medium with 2% FCS in the absence of G418. The cells are treated with DMSO as a control, or HCV-796 alone at 40 and 80 nM, or SCH 503034 alone at 200, 400, 600 and 800 nM, or a combination of HCV-796 and SCH 503034 at 40/400, 80/400, 40/800 and 80/800 nM, respectively, for HCV-796 and SCH 503034. The DMSO concentration in both drug-treated and control cells is 0.5% (v/v). Tissue culture plates are incubated in a 37° C. incubator containing 5% CO2. When cells reach about 80% confluence (about 2-3 days), cells are passaged in a 1:3 dilution and the old medium is replaced with fresh medium containing the compounds at the respective concentrations. Cell pellets containing […] are collected during each passage, and monitored for HCV RNA using quantitative Taqman RT-PCR as described above. […]
Drug susceptibility of the replicon variants is evaluated as previously described in the section “Intracellular antiviral activities in HCV Replicon”. […] The plate is incubated for 72 hours at 37° C. and 5% CO2 before quantification of HCV and GAPDH RNAs. The amounts of HCV, rRNA and GAPDH RNAs are quantified using the TaqMan RT-PCR assay as described above (see Quantification of HCV and 18S Ribosomal RNAs).

With `CNC(=O)c1c(-c2ccc(F)cc2)oc2cc(N(CCO)S(C)(=O)=O)c(C3CC3)cc12` [HCV-796, 5-cyclopropyl-2-(4-fluoro-phenyl)-6-[(2-hydroxy-ethyl)-methanesulfonyl-amino]-benzofuran-3-carboxylic acid methylamide], in the experiment on HCV 1a H77 replicon, the EC50 is 2.5 ± 1.7 nM. The “Selection of resistant replicon variants” value with Huh7-BB7 cells (up to 80 nM HCV-796 alone) was “selection of replicon variants that have reduced susceptibility”.
Regarding `CC(C)(C)NC(=O)N[C@H](C(=O)N1C[C@H]2[C@@H]([C@H]1C(=O)NC(CC1CCC1)C(=O)C(N)=O)C2(C)C)C(C)(C)C` (stereo partly drawn) [SCH 503034, (1R,5S)—N-[3-amino-1-(cyclobutylmethyl)-2,3-dioxopropyl]-3-[2(S)-[[[(1,1-dimethylethyl)amino]carbonyl]amino]-3,3-dimethyl-1-oxobutyl]-6,6-dimethyl-3-azabicyclo[3.1.0]hexan-2(S)-carboxamide], the EC50 with HCV 1a H77 replicon amounted to 188 ± 18 nM. Further, the “Selection of resistant replicon variants” value in the experiment on Huh7-BB7 cells (800 nM SCH 503034 alone) is “selection of replicon variants that have reduced susceptibility”.
